Experimental data as given in patent US6599932B1, “Alpha, beta-unsaturated sulfones for treating proliferative disorders” (Temple University-Of The Commonwealth System of Higher …, priority 2000, dated 2003).

Legend:
Format in all cases: cell-based
Set-up in all cases: dose or concentration left out as unconfirmed
[1] = test system: prostate tumor cell line DU-145; assay: Viability assay, Trypan blue exclusion, prostate tumor cell line DU-145; settings: for cytotoxicity: Homo sapiens, DU-145, 96 hours, read-out: percent cell death (% Death), DU145; for percent cell death (% Death), DU145: 96 hours
Procedure: (§1) The effect of the sulfones on normal fibroblasts and on tumor cells of prostate, colon, lung and breast origin was examined utilizing the following cell lines: prostate tumor cell line DU-145; colorectal carcinoma cell line DLD-1; non-small cell lung carcinoma cell line H157; and breast tumor cell line BT-20. BT-20 is an estrogen-unresponsive cell line. NIH/3T3 and HFL are normal murine and human fibroblasts, respectively. BT-20, DLD-1 and H157 were grown in Dulbecco's modified Eagle's medium (DMEM) containing 10% fetal bovine serum supplemented with penicillin and streptomycin. DU145 was cultured in RPMI with 10% fetal bovine serum containing penicillin and streptomycin. NIH3T3 and HFL cells were grown in DMEM containing 10% calf serum supplemented with penicillin and streptomycin. All cell cultures were maintained at 37° C. in a humidified atmosphere of 5% CO2.
(§2) Cells were treated with test compound […] concentration and cell viability was determined after 96 hours by the Trypan blue exclusion method. Activity for each compound is reported as a range of cell induced death (% Death) with the lowest activity in the range of 5-10%.

[2] = test system: breast tumor cell line BT-20; assay: Viability assay, Trypan blue exclusion, breast tumor cell line BT-20; settings: for cytotoxicity: Homo sapiens, BT-20, 96 hours, read-out: percent cell death (% Death), BT20; for percent cell death (% Death), BT20: 96 hours
Procedure: as §1, §2

[3] = test system: colorectal carcinoma cell line DLD-1; assay: Viability assay, Trypan blue exclusion, colorectal carcinoma cell line DLD-1; settings: for cytotoxicity: Homo sapiens, DLD-1, 96 hours, read-out: percent cell death (% Death), DLD-1; for percent cell death (% Death), DLD-1: 96 hours
Procedure: as §1, §2

[4] = test system: non-small cell lung carcinoma cell line H157; assay: Viability assay, Trypan blue exclusion, non-small cell lung carcinoma cell line H157; settings: for cytotoxicity: Homo sapiens, NCI-H157, 96 hours, read-out: percent cell death (% Death), H157; for percent cell death (% Death), H157: 96 hours
Procedure: as §1, §2

With O=S(=O)(/C=C/c1ccccn1)Cc1ccc(F)cc1 [Example 1, (E)-2-Pyridineethenyl-4-fluorobenzylsulfone] the cytotoxicity [1] was 5 to 10%, the cytotoxicity [2] was 5 to 10% and the cytotoxicity [3] was 5 to 10%. For the same compound, the cytotoxicity [4] was 5 to 10%.

O=S(=O)(/C=C/c1cccnc1)Cc1ccc(F)cc1 [Example 2, (E)-3-Pyridineethenyl-4-fluorobenzylsulfone] gave a cytotoxicity [1] of 5 to 10%, a cytotoxicity [2] of 5 to 10% and a cytotoxicity [3] of 5 to 10%. The cytotoxicity [4] was 5 to 10%.

O=S(=O)(/C=C/c1ccccn1)Cc1ccc(Cl)cc1 [Example 4, (E)-2-Pyridineethenyl-4-chlorobenzylsulfone] gave a cytotoxicity [1] of 5 to 10%, a cytotoxicity [2] of 5 to 10% and a cytotoxicity [3] of 5 to 10%. The cytotoxicity [4] was 5 to 10%.

Compound O=S(=O)(/C=C/c1cccnc1)Cc1ccc(Cl)cc1 [Example 5, (E)-3-Pyridineethenyl-4-chlorobenzylsulfone] has a cytotoxicity [1] of 5 to 10%, a cytotoxicity [2] of 5 to 10% and a cytotoxicity [3] of 5 to 10%. The cytotoxicity [4] was 5 to 10%.

O=S(=O)(/C=C/c1ccncc1)Cc1ccc(Cl)cc1 [Example 6, (E)4-Pyridineethenyl4-chlorobenzylsulfone] showed a cytotoxicity [1] of 5 to 10%, a cytotoxicity [2] of 5 to 10% and a cytotoxicity [3] of 5 to 10%. The cytotoxicity [4] was 5 to 10%.

O=S(=O)(/C=C/c1ccccn1)Cc1ccc(Br)cc1 [Example 7, (E)-2-Pyridineethenyl-4-bromobenzylsulfone] was tested, and the cytotoxicity [1] was 5 to 10%, the cytotoxicity [2] was 5 to 10% and the cytotoxicity [3] was 5 to 10%. It also gave a cytotoxicity [4] of 5 to 10%.

Compound O=S(=O)(/C=C/c1cccnc1)Cc1ccc(Br)cc1 [Example 8, (E)-3-Pyridineethenyl-4-bromobenzylsulfone] has a cytotoxicity [1] of 10 to 15%, a cytotoxicity [2] of 10 to 15% and a cytotoxicity [3] of 10 to 15%. For the same compound, the cytotoxicity [4] was 10 to 15%.

Compound O=S(=O)(/C=C/c1ccncc1)Cc1ccc(Br)cc1 [Example 9, (E)-4-Pyridineethenyl-4-bromobenzylsulfone] has a cytotoxicity [1] of 5 to 10%, a cytotoxicity [2] of 5 to 10% and a cytotoxicity [3] of 5 to 10%. The cytotoxicity [4] was 5 to 10%.

For O=S(=O)(/C=C/c1cccs1)Cc1ccc(F)cc1 [Example 10, (E)-2-Thiopheneethenyl-4-fluorobenzylsulfone], the cytotoxicity [1] was 5 to 10%, the cytotoxicity [2] was 5 to 10% and the cytotoxicity [3] was 5 to 10%. It also gave a cytotoxicity [4] of 5 to 10%.

Work on O=S(=O)(/C=C/c1cccs1)Cc1ccc(Cl)cc1 [Example 11, (E)-2-Thiopheneethenyl4-chlorobenzylsulfone] yielded a cytotoxicity [1] of 5 to 10%, a cytotoxicity [2] of 5 to 10% and a cytotoxicity [3] of 5 to 10%. The cytotoxicity [4] was 5 to 10%.

O=S(=O)(/C=C/c1cccs1)Cc1ccc(Br)cc1 [Example 12, (E)-2-Thiopheneethenyl-4-bromobenzylsulfone] showed a cytotoxicity [1] of 5 to 10%, a cytotoxicity [2] of 5 to 10% and a cytotoxicity [3] of 5 to 10%. The cytotoxicity [4] was 5 to 10%.

O=S(=O)(/C=C/c1cc(Br)cs1)Cc1ccc(F)cc1 [Example 13, (E)-4-Bromo-2-thiopheneethenyl-4-fluorobenzylsulfone] showed a cytotoxicity [1] of 5 to 10%, a cytotoxicity [2] of 5 to 10% and a cytotoxicity [3] of 5 to 10%. The cytotoxicity [4] was 5 to 10%.

O=S(=O)(/C=C/c1cc(Br)cs1)Cc1ccc(Cl)cc1 [Example 14, (E)-4-Bromo-2-thiopheneethenyl-4-chlorobenzylsulfone] was tested, and the cytotoxicity [1] was 5 to 10%, the cytotoxicity [2] was 5 to 10% and the cytotoxicity [3] was 5 to 10%. For the same compound, the cytotoxicity [4] was 5 to 10%.

In the case of O=S(=O)(/C=C/c1cc(Br)cs1)Cc1ccc(Br)cc1 [Example 15, (E)-4-Bromo-2-thiopheneethenyl-4-bromobenzylsulfone], the cytotoxicity [1] was 5 to 10%, the cytotoxicity [2] was 5 to 10% and the cytotoxicity [3] was 5 to 10%. For the same compound, the cytotoxicity [4] was 5 to 10%.

O=S(=O)(/C=C/c1ccc(Br)s1)Cc1ccc(F)cc1 [Example 16, (E)-5-Bromo-2-thiopheneethenyl-4-fluorobenzylsulfone] showed a cytotoxicity [1] of 5 to 10%, a cytotoxicity [2] of 5 to 10% and a cytotoxicity [3] of 5 to 10%. It also gave a cytotoxicity [4] of 5 to 10%.

With O=S(=O)(/C=C/c1ccc(Br)s1)Cc1ccc(Cl)cc1 [Example 17, (E)-5-Bromo-2-thiopheneethenyl-4-chlorobenzylsulfone] the cytotoxicity [1] was 5 to 10%, the cytotoxicity [2] was 5 to 10% and the cytotoxicity [3] was 5 to 10%. For the same compound, the cytotoxicity [4] was 5 to 10%.

Compound O=S(=O)(/C=C/c1ccc(Br)s1)Cc1ccc(Br)cc1 [Example 18, (E)-5-Bromo-2-thiopheneethenyl4-bromobenzylsulfone] has a cytotoxicity [1] of 5 to 10%, a cytotoxicity [2] of 5 to 10% and a cytotoxicity [3] of 5 to 10%. The cytotoxicity [4] was 5 to 10%.

In the case of O=S(=O)(/C=C/c1ccsc1)Cc1ccc(F)cc1 [Example 22, (E)-3-Thiopheneethenyl-4-fluorobenzylsulfone], the cytotoxicity [1] was 5 to 10%, the cytotoxicity [2] was 5 to 10% and the cytotoxicity [3] was 5 to 10%. For the same compound, the cytotoxicity [4] was 5 to 10%.

O=S(=O)(/C=C/c1ccsc1)Cc1ccc(Cl)cc1 [Example 23, (E)-3-Thiopheneethenyl-4-chlorobenzylsulfone] was tested, and the cytotoxicity [1] was 40 to 50%, the cytotoxicity [2] was 40 to 50% and the cytotoxicity [3] was 40 to 50%. It also gave a cytotoxicity [4] of 40 to 50%.

Work on O=S(=O)(/C=C/c1ccsc1)Cc1ccc(Br)cc1 [Example 24, (E)-3-Thiopheneethenyl-4-bromobenzylsulfone] yielded a cytotoxicity [1] of 40 to 50%, a cytotoxicity [2] of 40 to 50% and a cytotoxicity [3] of 40 to 50%. It also gave a cytotoxicity [4] of 40 to 50%.

For O=S(=O)(/C=C/c1ccsc1)Cc1ccc(I)cc1 [Example 25, (E)-3-Thiopheneethenyl-4-iodobenzylsulfone], the cytotoxicity [1] was 10 to 15%, the cytotoxicity [2] was 10 to 15% and the cytotoxicity [3] was 10 to 15%. For the same compound, the cytotoxicity [4] was 10 to 15%.

Compound Cc1ccc(CS(=O)(=O)/C=C/c2ccsc2)cc1 [Example 26, (E)-3-Thiopheneethenyl-4-methylbenzylsulfone] has a cytotoxicity [1] of 5 to 10%, a cytotoxicity [2] of 5 to 10% and a cytotoxicity [3] of 5 to 10%. It also gave a cytotoxicity [4] of 5 to 10%.

In the case of COc1ccc(CS(=O)(=O)/C=C/c2ccsc2)cc1 [Example 27, (E)-3-Thiopheneethenyl-4-methoxybenzylsulfone], the cytotoxicity [1] was 50 to 60%, the cytotoxicity [2] was 50 to 60% and the cytotoxicity [3] was 50 to 60%. It also gave a cytotoxicity [4] of 50 to 60%.

For O=S(=O)(/C=C/c1ccsc1)Cc1ccc(OC(F)(F)F)cc1 [Example 28, (E)-3-Thiopheneethenyl-4-trifloromethoxylbenzylsulfone], the “percent cell death (% Death), DU145” value [1] was “+ ((+)=5-10%)”, the “percent cell death (% Death), BT20” value [2] was “+ ((+)=5-10%)” and the “percent cell death (% Death), DLD-1” value [3] was “+ ((+)=5-10%)”. The “percent cell death (% Death), H157” value [4] was “+ ((+)=5-10%)”.

O=S(=O)(/C=C/c1ccsc1)Cc1ccc(Cl)cc1Cl [Example 29, (E)-3-Thiopheneethenyl-2,4-dichlorobenzylsulfone] was tested, and the cytotoxicity [1] was 50 to 60%, the cytotoxicity [2] was 50 to 60% and the cytotoxicity [3] was 50 to 60%. For the same compound, the cytotoxicity [4] was 50 to 60%.

O=S(=O)(/C=C/c1ccsc1)Cc1ccc(Cl)c(Cl)c1 [Example 30, (E)-3-Thiopheneethenyl-3,4-dichlorobenzylsulfone] was tested, and the cytotoxicity [1] was 5 to 10%, the cytotoxicity [2] was 5 to 10% and the cytotoxicity [3] was 5 to 10%. For the same compound, the cytotoxicity [4] was 5 to 10%.

N#Cc1ccc(CS(=O)(=O)/C=C/c2ccsc2)cc1 [Example 31, (E)-3-Thiopheneethenyl-4-cyanobenzylsulfone] was tested, and the cytotoxicity [1] was 5 to 10%, the cytotoxicity [2] was 5 to 10% and the cytotoxicity [3] was 5 to 10%. It also gave a cytotoxicity [4] of 5 to 10%.

O=[N+]([O-])c1ccc(CS(=O)(=O)/C=C/c2ccsc2)cc1 [Example 32, (E)-3-Thiopheneethenyl4-nitrobenzylsulfone] showed a cytotoxicity [1] of 5 to 10%, a cytotoxicity [2] of 5 to 10% and a cytotoxicity [3] of 5 to 10%. For the same compound, the cytotoxicity [4] was 5 to 10%.

In the case of O=S1(=O)C=CC(/C=C/S(=O)(=O)Cc2ccc(F)cc2)=C1 [Example 33, (E)-3-Thiophene-1,1-dioxoethenyl-4-fluorobenzylsulfone], the “percent cell death (% Death), DU145” value [1] was “+ ((+)=5-10%)”, the “percent cell death (% Death), BT20” value [2] was “+ ((+)=5-10%)” and the “percent cell death (% Death), DLD-1” value [3] was “+ ((+)=5-10%)”. The “percent cell death (% Death), H157” value [4] was “+ ((+)=5-10%)”.

In the case of O=S1(=O)C=CC(/C=C/S(=O)(=O)Cc2ccc(Cl)cc2)=C1 [Example 34, (E)-3-Thiophene-1,1-dioxoethenyl-4chlorobenzylsulfone], the “percent cell death (% Death), DU145” value [1] was “+ ((+)=5-10%)”, the “percent cell death (% Death), BT20” value [2] was “+ ((+)=5-10%)” and the “percent cell death (% Death), DLD-1” value [3] was “+ ((+)=5-10%)”. The “percent cell death (% Death), H157” value [4] was “+ ((+)=5-10%)”.

With O=S1(=O)C=CC(/C=C/S(=O)(=O)Cc2ccc(Br)cc2)=C1 [Example 35, (E)-3-Thiophene-1,1-dioxoethenyl-4-bromobenzylsulfone] the “percent cell death (% Death), DU145” value [1] was “+ ((+)=5-10%)”, the “percent cell death (% Death), BT20” value [2] was “+ ((+)=5-10%)” and the “percent cell death (% Death), DLD-1” value [3] was “+ ((+)=5-10%)”. For the same compound, the “percent cell death (% Death), H157” value [4] was “+ ((+)=5-10%)”.

Work on O=[N+]([O-])c1ccccc1/C=C/S(=O)(=O)Cc1cccc2ccccc12 [Example 71, (E)-2-Nitrostyryl-1-(naphthylmethyl)sulfone] yielded a cytotoxicity [1] of 40 to 50% and a cytotoxicity [2] of 40 to 50%.

For O=[N+]([O-])c1cccc(/C=C/S(=O)(=O)Cc2cccc3ccccc23)c1 [Example 72, (E)-3-Nitrostyryl-1-(naphthylmethyl)sulfone], the cytotoxicity [1] was 5 to 10% and the cytotoxicity [2] was 5 to 10%.
